Structures can show the parent of a compound that is named as a salt. Where no end group is shown, it is not given here. [ ]: non-standard residue; d: D form. Phe(4-NH2) = Nc1ccc(C[C@H](N)C(=O)O)cc1; Sta = CC(C)C[C@H](N)[C@@H](O)CC(=O)O; Orn = NCCC[C@H](N)C(=O)O; Imid = not defined here; Dap = NC[C@H](N)C(=O)O
Tested on: PAR-2
Experiment: Inhibition of PAR-2 activating peptide (AP2) calcium signaling in cells pretreated with antagonist
Format: cell-based, human
Set-up: key to PAR-2 AP2 Signaling Treated/Control (T/C) / PAR-2 AP2 Signaling Treated/Control: AUC of calcium mobilization, treated ÷ control wells
Settings: mimetic antagonists; AUC of calcium mobilization treated/control; initially screened at 1 mM compound
Experimental: In order to assess the potential of peptides and molecules selected above to block PAR-2 signaling, cells were pretreated with potential antagonist peptides for a predetermined amount of time and were subsequently treated with various GPCR agonists. Confluent Lewis lung carcinoma (LLC) cells were loaded for 30-60 minutes with the fluorescent dye Fluo-4. Final concentration 4 uM Fluo-4, 0.02% pluronic acid in physiological buffer. Cells were then washed with assay buffer, (HBSS containing 1 mM CaCl2, 1 mM MgSO4, and 2.5 mM probenecid). Cells were stimulated with various doses of PAR-2 activating peptide, PAR-1 activating peptide or ATP. Fluorescence was monitored using a Wallac 1470 fluorescent plate reader. (See Al-ani et. al Journal of Pharmacology and Experimental Therapeutics 290:2, 753-760). Additional compound screening was performed using U87-MG human glioma cells. In this assay cells were labeled with FLIPR Calcium 3 dye (Component A), which was dissolved in 10 mls of Assay Buffer without Probenecid. Loading buffer was prepared by diluting Component A with an additional 90 mls of Assay Buffer without Probenecid, giving a total volume of a 100 ml. For plate loading, 11 mls of FLIPR Calcium 3 dye (Component A) is placed into a 15 ml conical tube+110 μl of 250 mM Probenecid, at a final in-well working volume of 2.5 mM. Finally, 50 μl of Calcium 3 dye was added wells containing 100 μl media, and incubated 1 hr, 37° C., 5% CO2. Calcium signaling was then measured using a Flexstation II (Molecular Devices) following manufacturer's instructions.
Potential antagonist compounds were initially screened at 1 mM compound concentration. Those compounds with activity were then subjected to additional confirmatory testing. Activity is reported as treated/controlled (T/C) where the area under the curve (AUC) of calcium mobilization plots in treated wells is divided by the AUC of calcium mobilization plots in control wells to generate a measure of inhibition.

Row | Compound | PAR-2 AP2 Signaling Treated/Control
1 | NCCCCCNC(=O)Cc1csc(NC(=O)CC2CCCCC2)n1 [ENMD-1559, N-(5-amino-pentyl)-2-[2-(2-cyclohexyl-acetyl-amino)-thiazol-4-yl]-acetamide] | 0.52
2 | Cl.O=C(CC1CCCCC1)N1CCN(C(=O)C2CNCCO2)CC1 (stereo not shown) [ENMD-1780, N^1-2-cyclohexylethanoyl-N-4-morpholine-2-carbonyl-piperazine hydrochloride] | 0.86
3 | N=C(N)NCCCCCC(=O)N1CCN(C(=O)CC2CCCCC2)CC1 [ENMD-1072, 4-(1-cyclohexylacetyl)piperazin-1-(5′-carbamoyl-pentylguanidine)] | 0.56
4 | NCCCCCCNc1nc2ccc(C(=O)NCC3CCCCC3)cc2[nH]1 [ENMD-1553, 2-(6-Amino-hexylamino)-3H-benzoimidazole-5-carboxylic acid cyclohexylmethyl-amide] | 0.81
5 | Cl.N[C@H]1CC[C@H](C(=O)N2CCN(C(=O)CC3CCCCC3)CC2)C1 [ENMD-1779, N1-2-cyclohexylethanoyl-N-4-(1R,3R)-1-amino-cyclopentane-3-carbonyl piperazine hydrochloride] | 0.89
6 | NCCCCCCNC(=O)C1CCS(=O)(=O)N1CCC1CCCCC1 (stereo not shown) [ENMD-1547, N-(2-cyclohexyl)ethylisothiasolidine-1,1-dioxide-3-carboxylic acid-6-aminohexylamide] | 0.24
7 | CCCCCC(=O)N1CCN(C(=O)CCCCCN)CC1 [ENMD-1039, N^1-hexanoyl-N^4-[6-aminohexanoyl]-piperazine] | 1.34
8 | CC(C)CC(=O)Nc1ccc(NC(=O)CCCN)cc1 [ENMD-1397, N-(4-(3-methylbutanamido)phenyl)-4-aminobutyl-amide hydrobromide] | 0.15
9 | NCCCCNC(=O)c1cnc(NCC2CCCCC2)cn1 [ENMD-1571, 4-aminobutyl-6-cyclohexanemethylamino-2-pyrazine amide] | 0.81
10 | NCCCCNC(=O)c1ccc(CCC2CCCCC2)cc1 [ENMD-1509, N-(4-aminobutyl)-4-(2-cyclohexylethyl)-benzamide] | 0.71
11 | O=C(Cc1ccccn1)N1CCN(C(=O)CC2CCCCC2)CC1 [ENMD-1069, 1-(4-(2-cyclohexylacetyl)piperazin-1-yl)-2-(pyridin-2-yl)-acetaldehyde] | 0.94
12 | NCCCCCCNC(=O)c1cc(NC(=O)CC2CCCCC2)[nH]n1 [ENMD-1551, 5-(2-cyclohexyl-acetylamino)-1H-pyrazole-3-carboxylic acid (6-amino-hexyl)-amide] | 0.66
13 | CC(C)CCc1cn(CCCCCCN)nn1 [ENMD-1519, 1-(6-aminohexyl)-4-(3-methylbutyl)-1,2,3-triazole] | 0.65
14 | NCCCCCC(=O)N1CCN(C(=O)Cc2ccccc2)CC1 [ENMD-1078, N^1-(2-phenylethanoyl)-N^4-(6-aminohexanoyl)piperazine] | 0.42
15 | NCCCCCCNC(=O)c1ccc2nc(NCC3CCCCC3)[nH]c2c1 [ENMD-1526, 2-(Cyclohexylmethyl-amino)-3H-benzoimidazole-5-carboxylic acid (6-amino-hexyl)-amide] | 0.64
16 | Nc1ccc(CC(=O)N2CC3CN(C(=O)CC4CCCCC4)CC3C2)cc1 (stereo not shown) [ENMD-1777, 1-(2-(2-(4-aminophenyl)acetyl-hexahydro-pyrrolo[3,4-c]pyrrol-5-(1H)-yl)-2-cyclohexyl)ethan-1-one] | 0.64
17 | O=C(Cc1cnc[nH]1)N1CCN(C(=O)CC2CCCCC2)CC1 [ENMD-1071, 1-(4-(2-(1H-imidazol-4-yl)acetyl)piperazin-1-yl)-1-cyclohexyl-acetamide hydrochloride] | 0.16
18 | NCCCCCCN1C(C(=O)NCCC2CCCCC2)CCS1(=O)=O (stereo not shown) [ENMD-1545, N-(6-aminohexyl)isothiazolidine-1,1-dioxide-3-carboxylic acid (2-cyclohexyl)ethylamide] | 0.35

Row | Compound | PAR-2 AP2 Signaling Treated/Control
19 | O=C(Cc1ccncc1)N1CCN(C(=O)CC2CCCCC2)CC1 [ENMD-1079, 1-(4-(2-cyclohexylacetyl)piperazin-1-yl)-2-(pyridin-4-yl)-acetaldehyde] | 0.90
20 | NCCCCCC(=O)NC1CN(C(=O)CC2CCCCC2)C1 [ENMD-1513, N-[1-(2-cyclohexylacetyl)azetidin-3-yl]-6-aminohexanamide] | 0.97
21 | CCCCC(=O)N1CCN(C(=O)CCCCCN)CC1 [ENMD-1040, N^1-pentanoyl-N-4-[6′-aminohexanoyl]-piperazine] | 1.04
22 | Cl.NCCCOc1ccc(OCC2CCCCC2)cc1 [ENMD-1567, 3-(4-(cyclohexylmethoxy)phenoxy)propan-1-amine hydrochloride] | 0.08
23 | NCCCCNc1ccc(C(=O)NCC2CCCCC2)cn1 [ENMD-1543] | 0.55
24 | NCCCCCC(=O)NCCNC(=O)CC1CCCCC1 [ENMD-1417, N-(2-(2-cyclohexylacetamido)ethyl)-6-aminohexan-amide] | 0.38
25 | NCCCCCCNC(=O)C1CN(C(=O)CC2CCCCC2)CCO1 (stereo not shown) [ENMD-1521, 4-(2-Cyclohexyl-acetyl)-morpholine-2-carboxylic acid (6-amino-hexyl)-amide] | 1.01
26 | NCCCCCC(=O)N[C@@H]1CC[C@H](C(=O)NCC2CCCCC2)C1 [ENMD-1505, N-cyclohexylmethyl-3S-(6-aminohexanamido)-cyclopentane-1R-carboxamide] | 0.19
27 | CC(C)CCN1C(C(=O)NCCCCCCN)CCS1(=O)=O (stereo not shown) [ENMD-1539, N-(isoamyl)isothiasolidine-1,1-dioxide-3-carboxylic acid-6-aminohexylamide] | 0.25
28 | CC(C)CCc1ccc(C(=O)NCCCCN)cc1 [ENMD-1552, N-(4-aminobutyl)-4-isopentyl-benzamide] | 0.10
29 | CC(C)COc1ccc(C(=O)NCCCCN)cc1 [ENMD-1405, N-(4-aminobutyl)-4-isobutoxy-benzamide] | 0.13
30 | NCCCCCC(=O)N1CC(NC(=O)CC2CCCCC2)C1 [ENMD-1514, 2-cyclohexylacetamid-N-(6-amino-1-hexanoylazetidin-3-yl)] | 0.53
31 | CC(C)CNC(=O)c1ccc(NCCCCN)nc1 [ENMD-1562, 6-(4-aminobutylamine)-3-(isobutyl)-nicotinoyl amide] | 0.57
32 | NCCCCCC(=O)Nc1nc(CC(=O)NCC2CCCCC2)cs1 [ENMD-1560, 6-amino-hexanoic acid {4-[(cyclohexylmethyl-carbamoyl)-methyl]-thiazol-2-yl}-amide] | 0.48
33 | CC(C)CCNC(=O)C1CCS(=O)(=O)N1CCCCCCN (stereo not shown) [ENMD-1546, N-(6-aminohexyl)isothiazolidine-1,1-dioxide-3-carboxylic acid isoamylamide] | 0.97
34 | Nc1ccc(CC(=O)N2CCN(C(=O)CC3CCCCC3)CC2)cc1 [ENMD-1070, N^1-2-cyclohexylethanoyl-N^4-[2-(4-aminophenyl)-ethanoyl]-piperazine] | 0.05
35 | CCCC(=O)N1CCN(C(=O)CCCCCN)CC1 [ENMD-1036, N^1-butanoyl-N-4-[6′-aminohexanoyl]-piperazine] | 0.55
36 | NCCCCOc1ccc(OCc2ccccc2)cc1 [ENMD-1566, 4-(4-(benzyloxy)phenoxy)butan-1-amine hydrochloride] | 0.01

Same assay, conditions: peptides; AUC of calcium mobilization treated/control; initially screened at 1 mM compound

Row | Compound | PAR-2 AP2 Signaling Treated/Control (T/C)
37 | L-Imid-GK (L[Imid]GK; reading uncertain; also: printed as L-Imid-GK) [ENMD-1063] | 0.94
38 | IG-Dap (Ile-Gly-[Dap]) [ENMD-1025, Dap=diamino proprionic acid] | 0.31
39 | dI-dG-dK [ENMD-1383] | 0.48
40 | LIG-Orn (LIG[Orn]) [ENMD-1028, Orn=ornithine] | 0.36
41 | LIGQ [ENMD-1048] | 0.59
42 | LIG-(4-aminoF) (LIG[Phe(4-NH2)]) [ENMD-1030] | 0.05
43 | LIGE [ENMD-1046] | 0.34
44 | IGR [ENMD-1023] | 0.23
45 | LIGS [ENMD-1049] | 0.64
46 | dL-dI-dG-dK [ENMD-1032] | 0.44
47 | L-Sta-GK (L[Sta]GK) [ENMD-1057] | 1.40
48 | LPGK [ENMD-1053] | 0.89
49 | LIGR [ENMD-1022] | 0.26
